Assay results from patent US12054497B2, “Substituted heterocyclic fused cyclic compound, preparation method therefor and pharmaceutical use thereof” (GENFLEET THERAPEUTICS (SHANGHAI) INC., priority 2019, dated 2024).

Assays:
KRas G12C = KRas G12C (Homo sapiens (Human), UniProt P01116, G12C); test: Nucleotide exchange assay (NEA)-HTRF, SOS1 catalyzed displacement of GDP by GTP (Test Example 4); type: biochemical
Description: The effects of compounds on SOS1 catalyzed displacement of GDP by GTP on KRas proteins was examined by homogeneous time-resolved fluorescence (HTRF). 30 μM 6×his labeled KRas G12C recombinant protein and 80 μM fluorochrome DY647 labeled GDP were co-incubated in a labeling buffer (1 mM DTT, 7.5 mM EDTA, 25 mM Tris-HCl, 45 mM NaCl) at 20° C. away from light for 2 hours. Protein quantification was performed after purification on the NAP-5 column to determine the concentration of KRas G12C-GDP.
1000× stock solutions of compounds at a concentration gradient of 3.16 were prepared by using DMSO, and diluted 250 times by a reaction buffer (40 mM N-2-hydroxyethylpiperazine-N-2-ethane sulfonic acid (HEPES), 10 mM MgCl2, 1 mM DTT, 0.002% Triton X-100) into 4× stock solutions of compounds. KRas G12C-GDP/Tb working solution (40 nM KRas G12C-GDP, 1×anti-his Tb) and SOS1/GTP working solution (0.2 μM SOS1, 200 μM GTP) were prepared by using the reaction buffer.
5 μl of 4×stock solution of a compound and 10 μl of KRas G12C-GDP/T working solution were added to each well of 96-well plate with white unclear bottom, and 5 μl of reaction buffer was added to the well of control group in stead of the 4×stock solution of a compound. After incubation at 20° C. away from light for 15 minutes, 5 μl of SOS1/GTP working solution was added and incubated at 20° C. away from light for 2 hours, and then a value of fluorescence intensity was read (excitation wavelength: 320 nm, and emission wavelengths: 615 nm and 665 nm). Besides, group TO was established with 10 μl of the reaction buffer and 10 μl of the KRas G12C-GDP/Tb working solution, and the value of fluorescence intensity was directly read. A relative light unit (RLU) was calculated by the following equation: RLU=(665 nm signal/615 nm signal)×10^4; and the inhibition rate (IR) of the compound was calculated by the following equation: IR (%)=(RLUcompound−RLUcontrol)/(RLUT0−RLUcontrol)×100%. The value of IC50 was calculated by fitting a gradiently diluted concentration of the compound and the corresponding cell proliferation inhibition rate using a four-parameter method.

[1] = system: A549 cells with Kras G12S mutation; test: Cell proliferation inhibition experiment, 3D spheroid, CellTiter-Glo (Test Example 1); type: cell-based, human; settings: 5 days
Description: (§1) NCI-H358 was a human NSCLC cell line with Kras G12C mutation, which was cultured in a RPMI-1640 medium with 10% fetal bovine serum (FBS). A549 was a human lung adenocarcinoma cell line with Kras G12S mutation, which was cultured in an F-12K medium with 10% FBS. Cells in logarithmic growth phase were detached with trypsin and EDTA, collected and counted, and H358 was regulated to 1.8E4 cells/ml by using an RPMI-1640 medium with 2% FBS, while A549 was regulated to 8.9E3 cells/ml with an F-12K medium containing 2% FBS. 800 (45 μl) H358 cells and 400 (45 μl) A549 cells were seeded to 384-well spheroid plates, respectively, and cultured overnight to establish 3D cell models. 1000× stock solutions of compounds at a concentration gradient of 3.16 were prepared by using DMSO, and diluted 100 times by the medium with 2% FBS into 10× stock solutions of compounds. On the day after cell seeding, 5 μl of 10× stock solution of a compound was added to each well of cell culture plate, with a final concentration being 1× and a DMSO content of 0.1%. DMSO was used as the control, and the medium with 2% FBS was used as blank control group. After 5 days of cell culture with the compound, 25 μl of CellTiter-Glo working solution was added to each well, and mixed uniformly at 400 rpm and incubation for 30 minutes. After standing at room temperature for 30 minutes, 40 μl of mixed solution was transferred to a 384-well plate with white clear bottom. A value of luminescence was then read, and a cell proliferation inhibition rate (IR) (%)=(RLU control-RLU compound)/(RLU control−RLU blank)×100%. The value of IC50 was calculated by fitting a gradiently diluted concentration of the compound and the corresponding cell proliferation inhibition rate using a Prism 6 four-parameter method.

[2] = system: NCI-H358 cells with Kras G12C mutation; test: as above; type: cell-based, human; settings: 5 days
Description: as §1

[3] = system: phosphorylated ERK in MIA PaCa2 cells with Kras G12C mutation; test: p-ERK HTRF assay for cells (Test Example 2); type: cell-based, human; settings: Homo sapiens, MIA PaCa-2, 2 h, MIA PaCa2 cells, 2 hours with compound; read-out: p-ERK IC50
Description: MIA PaCa2 was a human pancreatic carcinoma cell line with Kras G12C mutation, which was cultured in a DMEM with 10% FBS and 2.5% Horse serum. Cells in logarithmic growth phase were detached with trypsin and EDTA, collected and counted, and 2.5E4 cells were seeded to a 96-well cell culture plate and cultured overnight. 1000× stock solutions of compounds at a concentration gradient of 3.16 were prepared by using DMSO, and diluted 200 times by the medium into 5× stock solutions of compounds. On the day after cell seeding, 5× stock solution of a compound was added to each well of cell culture plate, with a final concentration being 1× and a DMSO content of 0.1%. DMSO was used as the control. The residual culture was removed after culturing for 2 hours with the compound. To each well, 50 ul of cell lysis buffer was added and mixed uniformly and incubation for 30 minutes. Subsequently, 16 ul of mixed solution was transferred to a 96-well plate with white unclear bottom, and 16 ul of cell lysis buffer was added to the blank control group. After the completion of transfer, 4 ul of p-ERK HTRF antibody mixture was added to each well, and a value of fluorescence intensity was read after incubation for 4 hours. The inhibition rate (IR) of the compound was calculated by the following equation: IR (%)=(RLU control-RLU compound)/(RLU control−RLU blank)×100%. The value of IC50 was calculated by fitting a gradiently diluted concentration of the compound and the corresponding cell proliferation inhibition rate using a Prism 8 four-parameter method.

[4] = system: subcutaneous xenograft tumor model of MIA PaCa-2; test: In vivo pharmacodynamic experiment, tumor growth inhibition (Test Example 5); design: species or system BALB/c nude mice; settings: p.o., QD; for TGI: day 14
Description: Experimental objective: to evaluate the in vivo pharmaceutical effects of tested compounds on the subcutaneous xenograft tumor model of MIA PaCa-2.
Experimental operation: 6 to 8 weeks old female BALB/c nude mice each having the body weight of 18-20 g were chosen. MIA PaCa-2 cells were cultured in DMEM containing 10% FBS, 2.5% HS and 1% penicillin-streptomycin at 37° C. in an incubator with 5% CO2. Cells were collected. The MIA PaCa-2 cells were subcutaneously inoculated to the animals at their backs on the right, 2.0×10^6 cells (0.1 mL) for each animal. When tumor grew to 190-311 mm^3, mice with tumor having a suitable size were chosen and treated in groups, with administration dosages shown in Table 5 below. The animals were weighed on an electronic balance each day. The tumor volume was investigated by using a vernier caliper twice a week. The tumor volume was calculated by the following equation: V=0.5 a×b^2, a and b representing the long diameter and the short diameter of the tumor, respectively. The tumor volume was used to calculate a tumor growth inhibition rate (TGI), and the TGI shown in the form of a percentage was used to indicate the antineoplastic activity of a compound. The TGI was calculated by the following equation: TGI (%)=[1−avTi−0/avCi−0)]×100, with avTi−0 representing the average tumor volume of the group administrated with the compound on a specific day minus the average tumor volume of this group on the day of grouping, and avCi−0 representing the average tumor volume of the solvent control group on a specific day minus the average tumor volume of the solvent control group on the day of grouping. The tumor volume was shown in the form of an average value±standard error of mean (SEM).

[5] = system: MIA PaCa-2 cells with Kras G12C mutation; test: Cell proliferation inhibition experiment, 3D spheroid, CellTiter-Glo (Test Example 3); type: cell-based, human; settings: Homo sapiens, MIA PaCa-2, 120 h, 5 days, read-out: MIA-PaCa2 IC50
Description: MIA PaCa-2 was a human pancreatic carcinoma cell line with Kras G12C mutation, which was cultured in a DMEM with 10% FBS and 2.5% Horse serum. A549 was a human lung adenocarcinoma cell line with Kras G12S mutation, which was cultured in an F-12K medium with 10% FBS. Cells in logarithmic growth phase were detached with trypsin and EDTA, collected and counted, and 200 MIA PaCa-2 cells and 400 A549 cells were seeded to 384-well spheroid plates, respectively, and cultured overnight to establish 3D cell models. 1000× stock solutions of compounds at a concentration gradient of 3.16 were prepared by using DMSO, and diluted 100 times by the medium into 10× stock solutions of compounds. On the day after cell seeding, 10× stock solution of a compound was added to each well of cell culture plate, with a final concentration being 1× and a DMSO content of 0.1%. DMSO was used as the control, and the medium was used as the blank. After 5 days of cell culture with the compound, 30 μl of CellTiter-Glo working solution was added to each well, and mixed uniformly and incubation for 30 minutes. After standing at room temperature for 30 minutes, 40 μl of mixed solution was transferred to a 384-well plate with white unclear bottom. A value of luminescence intensity was then read, and a cell proliferation inhibition rate (IR) (%)=(RLU control−RLU compound)/(RLU control−RLU blank)×100%. The value of IC50 was calculated by fitting a gradiently diluted concentration of the compound and the corresponding cell proliferation inhibition rate using an XLFit four-parameter method.

Sequence of KRas G12C (P01116-2 other isoform, or with tags, fused parts or gaps G12C): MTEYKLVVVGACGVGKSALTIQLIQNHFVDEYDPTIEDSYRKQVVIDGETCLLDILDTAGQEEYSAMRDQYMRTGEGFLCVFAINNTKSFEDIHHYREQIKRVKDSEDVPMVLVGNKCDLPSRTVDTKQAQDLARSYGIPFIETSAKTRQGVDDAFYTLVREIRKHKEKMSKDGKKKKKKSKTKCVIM

For `C=CC(=O)N1CCN2c3c(c(=O)n(-c4c(C)ccnc4C(C)C)c4nc(-c5c(O)cccc5F)c(F)cc34)OC[C@H]2C1` (atropisomer, axis not shown) [Compound Z1-2], which IC50 (KRas G12C) is on record?
Its IC50 is 1430 nM.

For `C=CC(=O)N1C[C@@H]2C(=O)N(C)c3c(c4cc(F)c(-c5c(O)cccc5F)nc4n(-c4c(C#N)cccc4C(C)C)c3=O)N2C[C@H]1C` (atropisomer, axis not shown) [Compound Z38-2, 2-((2R,4aR)-3-acryloyl-11-fluoro-10-(2-fluoro-6-hydroxyphenyl)-2,6-dimethyl-5,7-dioxo-2,3,4,4a,5,6-hexahydro-1H-pyrazino[1′,2′:4,5]pyrazino[2,3-c][1,8]naphthyridin-8(7H)-yl)-3-isopropylbenzonitrile], which IC50 (KRas G12C) is on record?
Its IC50 is 2150 nM.

And the IC50 [1]?
The IC50 was greater than 30000 nM.

And the IC50 [2]?
The IC50 was 513 nM.

Which IC50 (KRas G12C) does the source give for `C=CC(=O)N1CCN2c3c(c(=O)n(-c4c(C)ccnc4C(C)C)c4nc(-c5c(O)cccc5F)c(F)cc34)N(C)C(=O)[C@H]2C1` (single isomer, unassigned) [Compound Z9-1] here?
The IC50 was 2570 nM.

What about the IC50 ([1]; Homo sapiens, A549, 120 h) of the same compound?
Its IC50 is greater than 10000 nM.

And the IC50 [2]?
The IC50 was 218 nM.

Which results are given for `C=CC(=O)N1CCN2c3c(c(=O)n(-c4c(C)ncnc4C(C)C)c4nc(-c5c(O)cccc5F)c(F)cc34)N(C)C(=O)[C@H]2C1` (single isomer, unassigned) [Compound Z21-2]?
IC50 (KRas G12C): 3940 nM; IC50 [1]: > 30000 nM; IC50 [2]: 407 nM

Which IC50 (KRas G12C) does the source give for `C=CC(=O)N1CCN2c3c(c(=O)n(-c4c(C)ccnc4C(C)C)c4nc(-c5c(O)cccc5F)c(Cl)cc34)N(C)C(=O)[C@H]2C1` (single isomer, unassigned) [Compound Z25-1] here?
Its IC50 is 951 nM.

And the IC50 ([1]; Homo sapiens, A549, 120 h)?
Its IC50 is greater than 30000 nM.

What about the IC50 [2] of the same compound?
Its IC50 is 50 nM.

Which results are given for `[2H]C([2H])([2H])N1C(=O)[C@H]2CN(C(=O)C=C)CCN2c2c1c(=O)n(-c1c(C)ccnc1C(C)C)c1nc(-c3c(O)cccc3F)c(Cl)cc21` (single isomer, unassigned) [Compound Z26-1]?
IC50 (KRas G12C): 868 nM; IC50 [1]: > 30000 nM; IC50 [2]: 42 nM

`C=CC(=O)N1CCN2c3c(c(=O)n(-c4c(C(C)C)ncnc4C(C)C)c4c(F)c(-c5c(O)cccc5F)c(Cl)cc34)NC(=O)[C@H]2C1` (single isomer, unassigned) [Compound Z37-2] was tested. Which IC50 (KRas G12C) did it give?
The IC50 was 1900 nM.

And the IC50 [1]?
Its IC50 is 3320 nM.

What about the IC50 [2] of the same compound?
The IC50 was 165 nM.

Which results are given for `[2H]C([2H])([2H])N1C(=O)[C@H]2CN(C(=O)C=C)CCN2c2c1c(=O)n(-c1c(C(C)C)ncnc1C(C)C)c1c(F)c(-c3c(O)cccc3F)c(Cl)cc21` (single isomer, unassigned) [Compound Z39-2]?
IC50 (KRas G12C): 2240 nM; IC50 [1]: 7780 nM; IC50 [2]: 316 nM

Which results are given for `C=CC(=O)N1C[C@@H]2C(=O)N(C)c3c(c4cc(Cl)c(-c5c(O)cccc5F)nc4n(-c4c(C(C)C)ncnc4C(C)C)c3=O)N2C[C@H]1C` [Compound Z23, (2R,4aR)-3-acryloyl-11-chloro-8-(4,6-diisopropylpyrimidin-5-yl)-10-(2-fluoro-6-hydroxyphenyl)-2,6-dimethyl-2,3,4,4a,6,8-hexahydro-1H-pyrazino[1′,2′:4,5]pyrazino[2,3-c][1,8]naphthyridin-5,7-dione]?
IC50 [3]: 17 nM; Tumor Volume on Day 14 after Administration ([4]; 1 mg/kg): 194.65 mm^3; TGI ([4]; 1 mg/kg): 113.2%; Tumor Volume on Day 14 after Administration ([4]; 3 mg/kg): 59.52 mm^3; TGI ([4]; 3 mg/kg): 143.5%; Tumor Volume on Day 14 after Administration ([4]; 10 mg/kg): 47.32 mm^3; TGI ([4]; 10 mg/kg): 149.2%; IC50 ([1]; Homo sapiens, A549, 120 h): 10500 nM; IC50 ([2]; Homo sapiens, NCI-H358, 120 h): 2 nM; IC50 [5]: 2 nM
